Where two headings read alike, the source gives them in different places.
Legend:
[1] = tested on: rat chronic constriction injury (CCI) model of neuropathic pain; experiment: Rat chronic constriction injury (CCI) model of neuropathic pain; format: in vivo; conditions: IP, dose not given; 50% paw withdrawal threshold, von Frey
Experimental: To induce allodynia, male Sprague-Dawley rats underwent chronic constriction injury (CCI) to the sciatic nerve as described by Bennett and Xie, Pain 1988; 33(1):87-107. The plantar surface of the hind paws was stimulated with von Frey filaments (Stoelting) to induce a withdrawal response by blinded personnel. The bending force of fiber required to induce a 50% withdrawal response was calculated following CCI surgery (pre-dosing baseline). N=5-6 allodynic rats received a single IP or oral administration of test compounds or vehicle. Two hours post-dosing, 50% paw withdrawal threshold was determined again by blinded testers using von Frey filaments. The 50% withdrawal threshold prior to CCI surgery, pre-dosing (10 days post-surgery), and 2 hours post-dosing are plotted.
For selected compounds multi-day studies were perfumed with pre-determined schedules for dosing and withdrawal threshold assessments.

[2] = tested on: phosphorylated c-Jun (serine-73); experiment: Phosphorylated c-JUN (A-beta), SH-SY5Y; format: cell-based; conditions: Homo sapiens, Amyloid Beta peptide 30 uM, 3 hours, read-out: p-cJun Abeta SH-SY5Y (EC50 in μM)
Experimental: In 96-well plates either human SH-SY5Y neuroblastoma cells at 2.5×10^4 cells/well or E18 rat neuronal cells at 1.5×10^4 cells/well were seeded. […] Supernatant was discarded and cells were fixed with 4% paraformaldehyde (100 ul/well) for 20 minutes. FACE cell based ELISA assay (Active Motif) was performed specific for quantifying phosphorlyated c-Jun (serine-73).

[3] = target: T1, catalytic domain of phosphodiesterase 4B enzyme cloned from human brain (Homo sapiens, UniProt Q07343); experiment: PDE4 inhibition assay (PDELight); format: biochemical; conditions: for IC50: 5 uM cAMP, read-out: PDE 4 Inhibition (IC50 in μM)
T1 construct: the catalytic domain of phosphodiesterase 4B enzyme; purchased Scottish Biomedical
T1 sequence (Q07343 330-659 limits assumed): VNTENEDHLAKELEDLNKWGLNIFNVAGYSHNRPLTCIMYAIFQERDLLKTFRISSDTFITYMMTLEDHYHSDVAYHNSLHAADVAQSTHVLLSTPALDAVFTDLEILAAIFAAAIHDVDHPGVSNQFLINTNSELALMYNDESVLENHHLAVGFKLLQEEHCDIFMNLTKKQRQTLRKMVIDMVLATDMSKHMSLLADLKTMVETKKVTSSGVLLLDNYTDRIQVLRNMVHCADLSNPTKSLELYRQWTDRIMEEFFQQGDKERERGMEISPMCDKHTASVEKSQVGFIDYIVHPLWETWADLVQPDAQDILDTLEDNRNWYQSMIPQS
Experimental: In a 96-well plate, the catalytic domain of phosphodiesterase 4B enzyme (40 mU/well) cloned from human brain (Scottish Biomedical) was combined with 5 uM cAMP substrate (Sigma). […] Using a PDELight® kit (Cambrex), the amount of AMP produced in the reaction from the hydrolysis of cAMP was quantified using PDELight AMP Detection Reagent which converts the AMP directly to ATP. The assay uses luciferase, which catalyses the formation of light from the newly formed ATP and luciferin. […] IC50 calculations were plotted using a nonlinear regression curve fit.

[4] = tested on: at least one of JNK 3 or JNK 2 and at least one of PDE 10 or PDE 4; experiment: Dual inhibition (phosphodiesterase and JNK); format: biochemical, human; conditions: IC50 JNK 3 or JNK 2 less than about 5.00 μM and PDE 10 or PDE 4 less than about 20.0 or 30.0 μM
Experimental: In a 96-well plate, recombinant full length human JNK2 or JNK3 enzyme (40 ng) expressed in Sf21 cells (Upstate) was incubated with the substrate ATF2 (3 uM) for 1 hour in the presence of 10 uM ATP. The amount of ATP depletion by the JNK enzyme is measured in the presence or absence of test compounds (0-30 uM). The ATP levels were quantified using luciferase with luminescence read on a Victor Light 1420 luminometer. IC50 calculations were plotted using a nonlinear regression curve fit.
(§1) In a 96-well plate, the catalytic domain of phosphodiesterase 4B enzyme (40 mU/well) cloned from human brain (Scottish Biomedical) was combined with 5 uM cAMP substrate (Sigma). Test compounds (0-30 uM) or vehicle (0.5% DMSO) were added to the enzyme/substrate and incubated 1 hour. Using a PDELight® kit (Cambrex), the amount of AMP produced in the reaction from the hydrolysis of cAMP was quantified using PDELight AMP Detection Reagent which converts the AMP directly to ATP. The assay uses luciferase, which catalyses the formation of light from the newly formed ATP and luciferin. The luminescence was read on a Victor Light 1420 luminometer. IC50 calculations were plotted using a nonlinear regression curve fit.
as §1, with “plate, recombinant human” for “plate, the catalytic domain of”, “phosphodiesterase 10A1” for “phosphodiesterase 4B”, “enzyme (10 U/well) expressed in Baculovirus infected Sf9 cells (BPS Biosciences)” for “enzyme (40 mU/well) cloned from human brain (Scottish Biomedical)”, “with 1” for “with 5”

[5] = target: T2, recombinant human phosphodiesterase 10A1 enzyme (Homo sapiens, UniProt Q9Y233); experiment: PDE10 inhibition assay (PDELight); format: biochemical; conditions: for IC50: 1 uM cAMP, read-out: PDE 10 Inhibition (IC50 in μM); for PDE-10 inhibition (in words): Table 2
T2 construct: purchased BPS Biosciences; host or cells: Baculovirus infected Sf9 cells
T2 sequence (Q9Y233 1-779 isoform Q9Y233-1): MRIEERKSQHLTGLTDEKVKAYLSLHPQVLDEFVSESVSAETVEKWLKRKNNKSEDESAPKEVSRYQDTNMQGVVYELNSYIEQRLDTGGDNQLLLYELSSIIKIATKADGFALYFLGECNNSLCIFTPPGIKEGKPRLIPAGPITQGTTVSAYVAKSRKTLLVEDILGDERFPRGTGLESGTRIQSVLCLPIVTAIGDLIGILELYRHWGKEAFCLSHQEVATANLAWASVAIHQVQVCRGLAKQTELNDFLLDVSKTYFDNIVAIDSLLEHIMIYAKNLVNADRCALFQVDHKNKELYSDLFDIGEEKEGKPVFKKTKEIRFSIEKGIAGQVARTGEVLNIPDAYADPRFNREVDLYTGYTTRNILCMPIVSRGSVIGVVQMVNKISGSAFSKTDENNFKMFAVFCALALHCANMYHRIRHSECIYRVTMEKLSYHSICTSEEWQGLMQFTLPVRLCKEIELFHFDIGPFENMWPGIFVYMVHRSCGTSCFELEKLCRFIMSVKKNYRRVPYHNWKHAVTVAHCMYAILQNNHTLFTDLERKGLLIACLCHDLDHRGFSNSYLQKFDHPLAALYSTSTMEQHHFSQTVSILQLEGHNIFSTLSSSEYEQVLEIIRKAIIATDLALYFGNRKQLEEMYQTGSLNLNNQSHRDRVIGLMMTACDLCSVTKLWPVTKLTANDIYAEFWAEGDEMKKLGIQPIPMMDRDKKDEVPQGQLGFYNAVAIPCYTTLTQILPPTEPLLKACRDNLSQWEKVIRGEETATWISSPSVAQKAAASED
Experimental: In a 96-well plate, recombinant human phosphodiesterase 10A1 enzyme (10 U/well) expressed in Baculovirus infected Sf9 cells (BPS Biosciences) was combined with 1 uM cAMP substrate (Sigma). […] Using a PDELight® kit (Cambrex), the amount of AMP produced in the reaction from the hydrolysis of cAMP was quantified using PDELight AMP Detection Reagent which converts the AMP directly to ATP. The assay uses luciferase, which catalyses the formation of light from the newly formed ATP and luciferin. The luminescence was read on a Victor Light 1420 luminometer. IC50 calculations were plotted using a nonlinear regression curve fit.

[6] = tested on: Mouse BV-2 microglial cells; experiment: BV-2 glial cell assay (TNF-α and MCP-1 by Luminex); format: cell-based; conditions: for EC50: Mus musculus, BV-2, LPS and IFN-γ activated, 20 hours; for inhibiting glial cell activation (TNF-α and/or MCP-1): Table 3
Experimental: Mouse BV-2 microglial cells were seeded on 96-well plates at a concentration of 3×10^4 cells/well. Cells were activated with 100 ng/mL LPS and IFN-γ (100 ng/mL) in the presence or absence of test compounds (0-30 uM). Following incubation for 20 hours, cells were spun down and supernatant collected. The supernatant was analyzed via Luminex for the presence of TNF-α and MCP-1.

[7] = target: T3, recombinant full length human JNK3 enzyme (Homo sapiens, UniProt P53779); experiment: JNK 3 inhibition assay (ATP depletion, luciferase); format: biochemical; conditions: for IC50: 10 uM ATP, ATF2 substrate; for JNK-3 inhibition (in words): see Table 2
T3 construct: recombinant full length human JNK2 or JNK3 enzyme; purchased Upstate; host or cells: Sf21 cells
T3 sequence (P53779 whole entry): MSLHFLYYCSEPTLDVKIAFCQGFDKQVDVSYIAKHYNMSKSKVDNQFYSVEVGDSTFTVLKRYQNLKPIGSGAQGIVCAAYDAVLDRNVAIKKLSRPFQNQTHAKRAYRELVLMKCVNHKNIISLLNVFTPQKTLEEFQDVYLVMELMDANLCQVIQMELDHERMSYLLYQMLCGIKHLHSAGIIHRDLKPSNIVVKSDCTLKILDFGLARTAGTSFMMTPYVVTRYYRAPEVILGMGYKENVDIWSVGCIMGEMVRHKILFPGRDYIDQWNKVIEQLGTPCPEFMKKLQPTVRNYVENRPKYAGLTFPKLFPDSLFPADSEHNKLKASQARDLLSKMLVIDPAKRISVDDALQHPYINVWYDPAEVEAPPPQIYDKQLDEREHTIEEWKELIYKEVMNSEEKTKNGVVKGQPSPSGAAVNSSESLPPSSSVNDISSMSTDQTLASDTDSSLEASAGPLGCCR
Experimental: In a 96-well plate, recombinant full length human JNK2 or JNK3 enzyme (40 ng) expressed in Sf21 cells (Upstate) was incubated with the substrate ATF2 (3 uM) for 1 hour in the presence of 10 uM ATP. […] The ATP levels were quantified using luciferase with luminescence read on a Victor Light 1420 luminometer. IC50 calculations were plotted using a nonlinear regression curve fit.

[8] = tested on: phosphorylated c-Jun (serine-73); experiment: Phosphorylated c-JUN (6-OHDA), SH-SY5Y; format: cell-based; conditions: Homo sapiens, 50 uM 6-hydroxydopamine, 1.5 hours, read-out: p-cJun 6-OHDA SH-SY5Y (EC50 in μM)
Experimental: Human SH-SY5Y neuroblastoma cells were cultured in 96-well plates with 2.5×10^4 cells/well and incubated for 48 hours. 6-hydroxydopamine was added at a concentration of 50 uM in the presence or absence of test compounds (0-30 uM) and incubated for 1.5 hours. Supernatant was discarded and cells were fixed with 4% paraformaldehyde (100 ul/well) for 20 minutes. FACE cell based ELISA assay (Active Motif) was performed specific for quantifying phosphorlyated c-Jun (serine-73).

[9] = target: T4, recombinant full length human JNK2 enzyme (Homo sapiens, UniProt P45984); experiment: JNK 2 inhibition assay (ATP depletion, luciferase); format: biochemical
T4 construct: recombinant full length human JNK2 or JNK3 enzyme; purchased Upstate; host or cells: Sf21 cells
T4 sequence (P45984 whole entry): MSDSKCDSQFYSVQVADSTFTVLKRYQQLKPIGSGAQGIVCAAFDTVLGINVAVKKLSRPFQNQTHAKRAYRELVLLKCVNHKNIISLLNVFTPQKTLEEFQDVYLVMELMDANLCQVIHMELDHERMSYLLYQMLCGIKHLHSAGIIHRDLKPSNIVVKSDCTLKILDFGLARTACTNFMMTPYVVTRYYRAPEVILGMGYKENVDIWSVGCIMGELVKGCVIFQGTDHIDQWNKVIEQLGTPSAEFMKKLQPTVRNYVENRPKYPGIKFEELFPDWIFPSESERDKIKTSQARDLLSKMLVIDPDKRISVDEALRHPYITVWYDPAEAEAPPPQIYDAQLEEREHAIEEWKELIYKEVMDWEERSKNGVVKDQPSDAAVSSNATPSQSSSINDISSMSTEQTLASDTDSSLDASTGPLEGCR
Experimental: In a 96-well plate, recombinant full length human JNK2 or JNK3 enzyme (40 ng) expressed in Sf21 cells (Upstate) was incubated with the substrate ATF2 (3 uM) for 1 hour in the presence of 10 uM ATP. […] IC50 calculations were plotted using a nonlinear regression curve fit.

[10] = Oral pharmacokinetic evaluation; format: in vivo, rat; conditions: Sprague-Dawley rats; for half-life / AUC(0-t) / Cmax: male, rat, plasma; for half-life: Sprague-Dawley, po, 15 mg/kg; for AUC(0-t): read-out: Oral PK AUClast; for Cmax: read-out: Oral PK Cmax
Experimental: Three male Sprague-Dawley rats were dosed orally via gavage with 15 mg/kg of test compound. Serial blood samples were collected from the jugular vein at 5, 15, and 30 min, 1, 3, and 6 hours post dosing. Samples were processed for plasma via centrifugation and plasma samples were stored frozen prior to analysis via a sensitive and specific HPLC/MS/MS method. PK parameters were calculated using WinNonLin (Pharsight).

[11] = read-out: MCP-1 BV-2 (EC50 in μM)
[12] = read-out: TNF-a BV-2 (EC50 in μM)
[13] = 10 uM ATP, ATF2 substrate, read-out: JNK 2 Inhibition (IC50 in μM)
[14] = read-out: IC50 value based upon a JNK 2 inhibition assay (range given)
[15] = 15 mg/kg oral gavage, read-out: Oral PK T½ (converted)

SMILES: CC(C)CNc1nccc(-c2c(C(C)C)nn3ccccc23)n1 [AV1158, N-isobutyl-4-(2-isopropylpyrazolo[1,5-a]pyridin-3-yl)pyrimidin-2-amine]
- IP CCI efficacy (Change in grams) [1]: 0.93 grams
- EC50 [2]: > 30 µM
- PDE-4 inhibition (in words) [3]: particularly effective
- IC50 [3]: 3.4 µM
- dual inhibition (phosphodiesterase and JNK) [4]: effective dual inhibitors
- IC50 [5]: 8.4 µM
- PDE-10 inhibition (in words) [5]: particularly effective
- EC50 [6, 11]: 1.2 µM
- EC50 [6, 12]: 1 µM
- inhibiting glial cell activation (TNF-α and/or MCP-1) [6]: Particularly effective
- IC50 [7]: 1.2 µM
- JNK-3 inhibition (in words) [7]: particularly effective
- EC50 [8]: > 30 µM

SMILES: Cc1cccc2c(-c3ccnc(NC(C)C)n3)c(C(C)C)nn12 [AV1168, N-isopropyl-4-(2-isopropyl-7-methylpyrazolo[1,5-a]pyridin-3-yl)pyrimidin-2-amine]
- IP CCI efficacy (Change in grams) [1]: 0 grams
- PDE-4 inhibition (in words) [3]: particularly effective
- IC50 [3]: 2.9 µM
- IC50 [9, 13]: 8.1 µM
- dual inhibition (phosphodiesterase and JNK) [4]: effective dual inhibitors
- IC50 [5]: 59 µM
- IC50 [7]: 2.2 µM

SMILES: CC(C)Cc1nn2ccccc2c1-c1ccnc(NC2CCCC2)n1 [AV1178, N-cyclopentyl-4-(2-isobutylpyrazolo[1,5-a]pyridin-3-yl)pyrimidin-2-amine]
- EC50 [2]: > 30 µM
- PDE-4 inhibition (in words) [3]: particularly effective
- IC50 [3]: 5.4 µM
- IC50 [9, 13]: 2.8 µM
- dual inhibition (phosphodiesterase and JNK) [4]: effective dual inhibitors
- IC50 [5]: > 100 µM
- IC50 [7]: 3.6 µM

SMILES: Brc1cccc(-c2nn3ccccc3c2-c2ccnc(NC3CCCC3)n2)c1 [AV1195, 4-(2-(3-bromophenyl)pyrazolo[1,5-a]pyridin-3-yl)-N-cyclopentylpyrimidin-2-amine]
- IP CCI efficacy (Change in grams) [1]: [0] grams
- PDE-4 inhibition (in words) [3]: particularly effective
- IC50 [3]: 4.9 µM
- IC50 [9, 13]: 0.09 µM
- IC50 [9, 14]: 0.01 to 2 µM
- dual inhibition (phosphodiesterase and JNK) [4]: effective dual inhibitors
- half life following oral dosing (in words) ([10]; oral): particularly prolonged half lives
- half-life [10, 15]: 1.2 h
- AUC(0-t) ([10]; 15 mg/kg oral gavage): 581 ng·h/mL
- Cmax ([10]; 15 mg/kg oral gavage): 211 ng/mL
- IC50 [5]: > 100 µM
- EC50 [6, 11]: 0.7 µM
- EC50 [6, 12]: 0.03 µM
- inhibiting glial cell activation (TNF-α and/or MCP-1) [6]: Particularly effective
- IC50 [7]: 0.05 µM
- JNK-3 inhibition (in words) [7]: particularly effective

SMILES: c1ccn2nc(C3CC3)c(-c3ccnc(NC4CCCC4)n3)c2c1 [AV1198, N-cyclopentyl-4-(2-cyclopropylpyrazolo[1,5-a]pyridin-3-yl)pyrimidin-2-amine]
- IP CCI efficacy (Change in grams) [1]: [0] grams
- PDE-4 inhibition (in words) [3]: particularly effective
- IC50 [3]: 3.4 µM
- IC50 [9, 13]: 1.4 µM
- IC50 [9, 14]: 0.01 to 2 µM
- dual inhibition (phosphodiesterase and JNK) [4]: effective dual inhibitors
- half life following oral dosing (in words) ([10]; oral): particularly prolonged half lives
- half-life [10, 15]: 3.6 h
- half-life ([10]; oral, read-out: half life following oral dosing): > 3 h
- AUC(0-t) ([10]; 15 mg/kg oral gavage): 79 ng·h/mL
- Cmax ([10]; 15 mg/kg oral gavage): 30 ng/mL
- IC50 [5]: 6.8 µM
- PDE-10 inhibition (in words) [5]: particularly effective
- EC50 [6, 11]: 0.3 µM
- EC50 [6, 12]: 3.3 µM
- inhibiting glial cell activation (TNF-α and/or MCP-1) [6]: Particularly effective
- IC50 [7]: 2.8 µM
- JNK-3 inhibition (in words) [7]: particularly effective

Reference: patent US20110039873A1, “SUBSTITUTED PYRAZOLO[1,5-a] PYRIDINE COMPOUNDS HAVING MULTI-TARGET ACTIVITY” (priority 2009, published 2011)
